From patent US9145351B2, “Azole derivatives, methods for producing the same, intermediate thereof, agro-horticultural agents” (KUREHA CORPORATION, priority 2009, dated 2015) come the findings set out here.

SMILES strings stand for the structures.

One assay concerns Septoria tritici. In words: Assay for fungicidal effect on Septoria tritici, plate medium 0.02 mg/L (Experimental Example 7). The format is cell-based. The note with it: Zymoseptoria tritici, read-out: grade (growth inhibition grade). From the text:
In this Experimental Example, the fungicidal effects of the inventive compounds on a phytopathogenic fungi, Septoria tritici were examined and compared to the Comparative Compound (3) described in Patent Literature 1 (JPA01-93574) by the methods described below. […] The subject microorganism previously cultured on a plate medium was cut out using a cork borer whose diameter was 4 mm, and inoculated to the test compound-containing plate medium described above. […] The growth degree of the microorganism on the test compound-containing plate medium thus observed was compared with the growth degree of the microorganism in the untreated group, and % mycelial growth inhibition was calculated by the following equation. R=100(dc−dt)/dc wherein R=% mycelial extension inhibition, dc=flora diameter in untreated plate, dt=flora diameter in treated plate. The results obtained as described above were evaluated as one of the 5 grades according to the following criteria. <Growth Inhibition Grade> […]

For a further assay, the system named is Puccinia recondita. In words: Efficacy test against wheat brown rust, 2 mg/L (Experimental Example 8). The format is in vivo. More on the design: key: 0: No onset; 0.5: Less than 1%; 1% or higher and less than 5%; 2: 5% or higher and less than 10%; 10% or higher and less than 30%; 4: 30% or higher and less than 50%; 50% or higher. The conditions noted are these: sprayed at 1,000 L/ha, concentration printed 0.02 mg/L, 9 to 14 days after inoculation. On the procedure:
Onto a wheat plant (variety: […] The sprayed leaves were air-dried, and inoculated with spore suspension of Puccinia recondita (adjusted at 200 spores/vision, […] was added at 60 ppm) by spraying, and kept at 25 degrees C. and a high humidity for 48 hours. Thereafter, the plant was kept in a greenhouse. Nine to 14 days after inoculation, the wheat brown rust lesion degree was investigated, and the protective value was calculated by the following equation. Protective value (%)=(1-lesion degree in sprayed plot/lesion degree in unsprayed plot)×100

Regarding `C[C@]1(CCl)CC[C@@H](Cc2ccc(F)cc2)[C@]1(O)Cn1cncn1` (racemic) [Compound I-77, (1RS,2SR,5SR)-2-chloromethyl-5-(4-fluorobenzyl)-2-methyl-1-(1H-1,2,4-triazol-1-ylmethyl)cyclopentanol], in the assay with Septoria tritici, the inhibition at 0.02 µg/mL is more than 80%. In addition, the “degree (wheat brown rust lesion degree)” value in the assay with Puccinia recondita was determined as 0.

Take `C[C@]1(CCl)CC[C@@H](Cc2ccccc2)[C@]1(O)Cn1cncn1` (racemic) [Compound I-73, (1RS,2SR,5SR)-2-chloromethyl-5-benzyl-2-methyl-1-(1H-1,2,4-triazol-1-ylmethyl)cyclopentanol]: in the assay on Septoria tritici, the inhibition at 0.02 µg/mL was more than 80%.
